Reference: ChEMBL document CHEMBL3046966, “Structure and Fungicidal Activities of 2-Methoxyimino-N-methyl-2-[2-(substituted pyridyloxymethyl)phenyl]acetamide Derivatives” (1998)

Columns and labels:
Format in all cases: functional
[1] = test system: Pseudoperonospora cubensis; experiment: Fungicidal activity against Pseudoperonospora cubensis assessed as cucumber downy mildew disease control at 2 ppm foliar application 24 hr after inoculation by curative manner
Botrytis cinerea [2] = experiment: Fungicidal activity against Botryotinia fuckeliana assessed as cucumber gray mold disease control at 7.8 ppm foliar application 24 hr after inoculation by curative manner
Podosphaera fuliginea [3] = experiment: Fungicidal activity against Podosphaera fuligineas assessed as cucumber […] mildew disease control at 7.8 ppm foliar application 24 hr after inoculation by curative manner
Podosphaera fuliginea [4] = experiment: Fungicidal activity against Podosphaera fuligineas assessed as cucumber […] mildew disease control at 7.8 ppm foliar application 24 hr before inoculation by preventive manner
[5] = test system: Pseudoperonospora cubensis; experiment: Fungicidal activity against Pseudoperonospora cubensis assessed as cucumber downy mildew disease control at 31.3 ppm foliar application 24 hr after inoculation by preventive manner
[6] = test system: Blumeria graminis f. sp. tritici; experiment: Fungicidal activity against Blumeria graminis f. sp. tritici assessed as wheat powdery mildew disease control at 2 ppm foliar application for 24 hr before inoculation by preventive manner
Botrytis cinerea [7] = experiment: Fungicidal activity against Botryotinia fuckeliana assessed as cucumber gray mold disease control at 7.8 ppm foliar application 24 hr before inoculation by preventive manner
[8] = test system: Blumeria graminis f. sp. tritici; experiment: Fungicidal activity against Blumeria graminis f. sp. tritici assessed as wheat powdery mildew disease control at 7.8 ppm foliar application for 24 hr after inoculation by curative manner
Pyricularia oryzae [9] = experiment: Fungicidal activity against Magnaporthe oryzae assessed as rice blast disease control at 31.3 ppm foliar application for 24 hr before inoculation by preventive manner
Pyricularia oryzae [10] = experiment: Fungicidal activity against Magnaporthe oryzae assessed as rice blast disease control at 31.3 ppm foliar application for 24 hr after inoculation by curative manner
Botrytis cinerea [11] = experiment: Fungicidal activity against Botryotinia fuckeliana assessed as cucumber gray mold disease control at 31.3 ppm foliar application 24 hr before inoculation by preventive manner
[12] = test system: Pseudoperonospora cubensis; experiment: Fungicidal activity against Pseudoperonospora cubensis assessed as cucumber downy mildew disease control at 125 ppm foliar application 24 hr after inoculation by preventive manner
Podosphaera fuliginea [13] = experiment: Fungicidal activity against Podosphaera fuligineas assessed as cucumber […] mildew disease control at 31.3 ppm foliar application 24 hr before inoculation by preventive manner
[14] = test system: Blumeria graminis f. sp. tritici; experiment: Fungicidal activity against Blumeria graminis f. sp. tritici assessed as wheat powdery mildew disease control at 31.3 ppm foliar application for 24 hr after inoculation by curative manner
Pyricularia oryzae [15] = experiment: Fungicidal activity against Magnaporthe oryzae assessed as rice blast disease control at 7.8 ppm foliar application for 24 hr after inoculation by curative manner
[16] = test system: Pseudoperonospora cubensis; experiment: Fungicidal activity against Pseudoperonospora cubensis assessed as cucumber downy mildew disease control at 7.8 ppm foliar application 24 hr after inoculation by curative manner
Botrytis cinerea [17] = experiment: Fungicidal activity against Botryotinia fuckeliana assessed as cucumber gray mold disease control at 125 ppm foliar application 24 hr before inoculation by preventive manner
Podosphaera fuliginea [18] = experiment: Fungicidal activity against Podosphaera fuligineas assessed as cucumber […] mildew disease control at 125 ppm foliar application 24 hr before inoculation by preventive manner
[19] = test system: Blumeria graminis f. sp. tritici; experiment: Fungicidal activity against Blumeria graminis f. sp. tritici assessed as wheat powdery mildew disease control at 125 ppm foliar application for 24 hr before inoculation by preventive manner
Podosphaera fuliginea [20] = experiment: Fungicidal activity against Podosphaera fuligineas assessed as cucumber […] mildew disease control at 125 ppm foliar application 24 hr after inoculation by curative manner
Botrytis cinerea [21] = experiment: Fungicidal activity against Botryotinia fuckeliana assessed as cucumber gray mold disease control at 125 ppm foliar application 24 hr after inoculation by curative manner
[22] = test system: Blumeria graminis f. sp. tritici; experiment: Fungicidal activity against Blumeria graminis f. sp. tritici assessed as wheat powdery mildew disease control at 7.8 ppm foliar application for 24 hr before inoculation by preventive manner
Botrytis cinerea [23] = experiment: Fungicidal activity against Botryotinia fuckeliana assessed as cucumber gray mold disease control at 2 ppm foliar application 24 hr after inoculation by curative manner
[24] = test system: Pseudoperonospora cubensis; experiment: Fungicidal activity against Pseudoperonospora cubensis assessed as cucumber downy mildew disease control at 31.3 ppm foliar application 24 hr after inoculation by curative manner
[25] = test system: Blumeria graminis f. sp. tritici; experiment: Fungicidal activity against Blumeria graminis f. sp. tritici assessed as wheat powdery mildew disease control at 31.3 ppm foliar application for 24 hr before inoculation by preventive manner
Pyricularia oryzae [26] = experiment: Fungicidal activity against Magnaporthe oryzae assessed as rice blast disease control at 125 ppm foliar application for 24 hr before inoculation by preventive manner
Podosphaera fuliginea [27] = experiment: Fungicidal activity against Podosphaera fuligineas assessed as cucumber […] mildew disease control at 31.3 ppm foliar application 24 hr after inoculation by curative manner
[28] = test system: Blumeria graminis f. sp. tritici; experiment: Fungicidal activity against Blumeria graminis f. sp. tritici assessed as wheat powdery mildew disease control at 125 ppm foliar application for 24 hr after inoculation by curative manner
Pyricularia oryzae [29] = experiment: Fungicidal activity against Magnaporthe oryzae assessed as rice blast disease control at 125 ppm foliar application for 24 hr after inoculation by curative manner
Pyricularia oryzae [30] = experiment: Fungicidal activity against Magnaporthe oryzae assessed as rice blast disease control at 7.8 ppm foliar application for 24 hr before inoculation by preventive manner
Podosphaera fuliginea [31] = experiment: Fungicidal activity against Podosphaera fuligineas assessed as cucumber […] mildew disease control at 2 ppm foliar application 24 hr after inoculation by curative manner

SMILES	Activity [1] [%]	Activity (Botrytis cinerea [2]) [%]	Activity (Podosphaera fuliginea [3]) [%]	Activity (Podosphaera fuliginea [4]) [%]	Activity [5] [%]	Activity [6] [%]	Activity (Botrytis cinerea [7]) [%]	Activity [8] [%]	Activity (Pyricularia oryzae [9]) [%]	Activity (Pyricularia oryzae [10]) [%]	Activity [12] [%]	Activity (Podosphaera fuliginea [13]) [%]	Activity (Pyricularia oryzae [15]) [%]	Activity [16] [%]	Activity (Botrytis cinerea [17]) [%]	Activity [19] [%]	Activity (Botrytis cinerea [21]) [%]	Activity [28] [%]	also measured
CNC(=O)/C(=N/OC)c1ccccc1COc1cccc(Cl)n1	90	90	90	90	90	90	90	90	90	90									
CNC(=O)/C(=N/OC)c1ccccc1COc1cccc(Br)n1		90	90			90			90		90	90	90	90					Activity (Botrytis cinerea [11]): 90%; Activity [14]: 90%
CNC(=O)/C(=N/OC)c1ccccc1COc1cc(C(F)(F)F)ccn1									90	90	<90			90	<90	90	<90		Activity (Podosphaera fuliginea [18]): 90%; Activity [14]: 90%; Activity (Podosphaera fuliginea [20]): 90%
CNC(=O)/C(=N/OC)c1ccccc1COc1ccc(C(F)(F)F)cn1			90		90		90	90	90	90		90		90					Activity [22]: 90%; Activity (Botrytis cinerea [23]): 90%
CNC(=O)/C(=N/OC)c1ccccc1COc1cccc(C(F)(F)F)n1	90		90	90	90	90		90	90				90				90		Activity (Botrytis cinerea [11]): 90%
CNC(=O)/C(=N/OC)c1ccccc1COc1cccc(OC)n1	90		90	90				90	90	90	90				90		90		Activity [24]: 90%; Activity [25]: 90%
CNC(=O)/C(=N/OC)c1ccccc1COc1cccc(SC)n1											90	90		90	90	90	<90	<90	Activity (Pyricularia oryzae [26]): <90%; Activity (Podosphaera fuliginea [27]): 90%
CNC(=O)/C(=N/OC)c1ccccc1COc1cccc(OC(C)C)n1									90	90	<90	90			90	90	<90	90	Activity [24]: 90%; Activity (Podosphaera fuliginea [27]): 90%
CNC(=O)/C(=N/OC)c1ccccc1COc1cc(C(F)(F)F)cc(Cl)n1											<90			90	<90	90	<90	90	Activity (Pyricularia oryzae [26]): 90%; Activity (Podosphaera fuliginea [18]): 90%; Activity (Podosphaera fuliginea [20]): 90%; Activity (Pyricularia oryzae [29]): <90%
CNC(=O)/C(=N/OC)c1ccccc1COc1ccc(C(F)(F)F)c(Cl)n1	90	90			90		90	90				90	90						Activity (Pyricularia oryzae [30]): 90%; Activity (Podosphaera fuliginea [31]): 90%; Activity [22]: 90%
